Measured values as given in US12409174B2, “Combination of zibotentan and dapagliflozin for the treatment of endothelin related diseases” (priority 2020, dated 2025).
One block for each molecule: values may come before it.

Assays:
[1] = Zibotentan and dapagliflozin blood concentrations, Experiment 2; details: male, Wistar, rat, Exp 2; for concentration at 4 h: 4 hr post first dose
Experimental: (§1) In the second experiment (Experiment 2), the effect of zibotentan and dapagliflozin (alone or in combination) on Hct concentration and Hb was determined. Seventy-two animals were randomized on BW and Hct concentration, 2 to 3 days prior to administration of study drugs into the following groups; 1) Vehicle, 2) Zibotentan (30 mg/kg), 3) Zibotentan (100 mg/kg), 4) Dapagliflozin (3 mg/kg), 5) Zibotentan (30 mg/kg)+Dapagliflozin (3 mg/kg) and 6) Zibotentan (100 mg/kg)+Dapagliflozin (3 mg/kg). For practical reasons, the study was conducted in two consecutive slots with 36 animals (6/group) in each slot. Compounds were administered p.o. QD for seven days. Blood samples for bioanalysis were collected at 4 and 24 hr after the first dose and 24 hr after the final dose for Hct concentration and Hb analysis on day three and seven as described for exp.1. Twenty-four hour urine was collected between the third and fourth dose. 24 hr food and water intake was measured between day 2-3 and between day 6-7. With two animals per cage, food intake and water intake per animal in a cage was assessed by dividing the food intake and water intake of a cage by two.
The blood and urine concentrations of zibotentan and dapagliflozin were determined by a bioanalytical method using liquid chromatography with mass spectrometric detection (LC-MS/MS).
Whole blood samples for bioanalysis of dapagliflozin and zibotentan followed the same procedure. A volume of 20 μL whole blood was precipitated with 150 μL acetonitrile containing internal standard and quickly vortexed, followed by a 20 min centrifugation at 3220 g and 4° C. The supernatant was transferred to a fresh deep well plate and diluted 1:1 with water prior to LC-MS analysis. Matrix matched calibration samples and blanks were treated in the same way as study samples. Zibotentan samples were further diluted twice and three times at a 1:10 ratio with 33% acetonitrile, to ensure all diluted samples were detectible within the calibration range.
Sample concentrations were determined against matrix-spiked calibration standards over a range of 0.010 μM-10.0 μM for dapagliflozin and 0.75 μM-376 μM for zibotentan, applying weighted linear regression (1/X^2) using Waters TargetLynx software version XS V4.2 SCN986.
Samples were analyzed by using reversed-phase high-pressure liquid chromatography with rapid gradient elution. Compounds were detected with Waters Xevo TQ-S triple quadrupole mass spectrometer (Waters Corporation, Milford, MA, USA). The chromatographic separation was performed by an ACQUITY BEH C18 1.8 μM, 2.1×50 mm column at a temperature of 40° C. Mobile phase A was 2% acetonitrile and 0.2% formic acid in water (A), and mobile phase B was 0.2% formic acid in acetonitrile (B). Separation was achieved using the following elution gradient: 0 min to 1.5 min, 4% B ramping up to 95% B; 1.5 min to 2.3 min, kept at 95% B; 2.3 min to 2.4 min, 95% B to 4% B and kept at 4% B until 2.7 min. The flow rate was 0.7 mL/min.
Samples were analyzed by reversed-phase high-pressure liquid chromatography with rapid gradient elution. Compounds were detected with Waters Xevo TQ-S triple quadrupole mass spectrometer (Waters Corporation, Milford, MA, USA). Mobile phase A was 1M ammonium acetate/acetonitrile/water (0.1/2/97.5, v/v/v), and mobile phase B was 1M ammonium acetate/acetonitrile (0.1/99.5, v/v). Separation was performed by an ACQUITY BEH C18 1.8 μM, 2.1×50 mm column from Waters using the following gradient: 0 min to 2.5 min, 4% B ramping to 60% B; 2.5 min to 2.9 min, 60% B to 95% B; 2.9 min to 3.4 min kept at 95% B, and from 3.4 to 3.5 min mobile phase B was returned to 4% B and kept at 4% B until 4 min. The flow rate was 0.6 mL/min and column temperature was 40° C.

[2] = test system: male Wistar rats fed a 4% salt diet; assay: Effect of zibotentan and dapagliflozin on Hb, Experiment 2; type: in vivo; details: Exp 2; for Basal Hb: baseline
Experimental: as §1
For Hct and Hb analysis, 100 μl of blood from rat's tail vein was collected and measured using CG8 cartridges analysed with an iSTAT instrument (Abbott Point of Care Inc, Abbot Park, IL, USA).
(§2) The data for each feature measured was checked for a normal distribution and where appropriate a log transformation was applied to data with a non-normal distribution using R. Since the data were grouped by one factor Zibotentin doses or combined therapy, a one-way ANOVA was used to analyse traits measured at a single time point (GraphPad version 8 or R statistics package emmeans) and a linear mixed effects model (nlme package) in R was used to analyse multiple measures data for body weight. The differences between groups were tested using either a Dunnett test (emmeans package in R or GraphPad v8) when comparing treated groups to the vehicle group or a Tukey comparison (emmeans package in R or Graphpad v8.) for specific pairwise comparisons of treated groups. All model assumptions were checked using the model diagnostic plots in R statistics. Results are expressed as the Mean±standard error of the Mean (SEM) for pharmacodynamic parameters and Mean±standard deviation (SD) for compound concentration in blood and urine. Significance was set at p<0.05.

[3] = test system: male Wistar rats fed a 4% salt diet; assay: Effect on plasma Na, K, glucose, urea and creatinine concentration, Experiment 2; details: Exp 2
Experimental: as §1
(§3) Plasma and Urine Albumin, Creatinine, Glucose, Urea, Potassium and Sodium levels were analyzed using an ABX Pentra 400 instrument (Horiba Medical, Irvine, California, USA) according to the manufacturers protocol.
as §2

[4] = test system: male Wistar rats fed a 4% salt diet; assay: Effect on urinary volume, glucose, Na, K, urea and creatinine in the urine, Experiment 2; type: in vivo; details: Exp 2; for Urine Creatinine / Urine K / Urine Na / Urine Urea / Urine volume: 24 hr urine between third and fourth dose; for Urine glucose excretion: FIG. 8A
Experimental: as §1, §3, §2

[5] = test system: male Wistar rats fed a 4% salt diet; assay: 24 hr water and food intake, Experiment 2; type: in vivo; details: Exp 2; FIG. 8B and FIG. 8C
Experimental: as §1

concentration at 24 h ([1]; whole blood, oral, 3 mg/kg, Dapagliflozin blood concentration, Dapa 3 mg/kg p.o. QD 7 days, 24 hr post last dose): 0.048 µM
concentration at 4 h ([1]; whole blood, oral, 3 mg/kg, Dapagliflozin blood concentration, Dapa 3 mg/kg p.o. QD): 1.94 µM
concentration at 24 h ([1]; whole blood, oral, 3 mg/kg, Dapagliflozin blood concentration, Dapa 3 mg/kg p.o. QD, 24 hr post first dose): 0.086 µM
Plasma Na, K, glucose, urea concentrations compared to vehicle [3]: unaltered
Plasma Creatinine ([3]; Dapa 3 mg/kg p.o. QD 7 days): 14.62 µM
Plasma Glucose ([3]; Dapa 3 mg/kg p.o. QD 7 days): 8.98 mmol/L
Plasma K ([3]; Dapa 3 mg/kg p.o. QD 7 days): 3.68 mmol/L
Plasma Na ([3]; Dapa 3 mg/kg p.o. QD 7 days): 137.6 mmol/L
Plasma Urea ([3]; Dapa 3 mg/kg p.o. QD 7 days): 4.34 mmol/L
Structure (SMILES): CCOc1ccc(Cc2cc([C@@H]3O[C@H](CO)[C@@H](O)[C@H](O)[C@H]3O)ccc2Cl)cc1 [Dapa, (1S)-1,5-anhydro-1-{4-chloro-3-[(4-ethoxyphenyl)methyl]phenyl}-D-glucitol]
Day 3 Hb ([2]; Dapa 3 mg/kg p.o. QD): 164.4 g/L
Day 7 Hb ([2]; Dapa 3 mg/kg p.o. QD): 159.1 g/L
Basal Hb ([2]; group Dapa 3 mg/kg): 157.9 g/L
24-hour urine volume and urea excretion compared to vehicle [4]: increased
Urine Na, K and creatinine compared to vehicle [4]: No change
Urine Creatinine ([4]; Dapa 3 mg/kg p.o. QD): 76.42 µmol
Urine K ([4]; Dapa 3 mg/kg p.o. QD): 1.40 mmol
Urine Na ([4]; Dapa 3 mg/kg p.o. QD): 12.60 mmol
Urine Urea ([4]; Dapa 3 mg/kg p.o. QD): 7.43 mmol
Urine volume ([4]; Dapa 3 mg/kg p.o. QD): 43.13 mL
Urine glucose excretion [4]: significantly increased
Water and food intake compared to vehicle [5]: increased

Structure (SMILES): COc1nc(C)cnc1NS(=O)(=O)c1cccnc1-c1ccc(-c2nnco2)cc1 [Zibo, N-(3-methoxy-5-methylpyrazin-2-yl)-2-[4-(1,3,4-oxadiazol-2-yl)phenyl]pyridine-3-sulfonamide]
concentration at 24 h ([1]; in vivo, 30 mg/kg, Zibotentan blood concentration, Zibo 30 mg/kg p.o. QD 7 days, 24 hr post last dose): 22.9 µM
concentration at 4 h ([1]; in vivo, 30 mg/kg, Zibotentan blood concentration, Zibo 30 mg/kg p.o. QD): 61.1 µM
concentration at 24 h ([1]; in vivo, 30 mg/kg, Zibotentan blood concentration, Zibo 30 mg/kg p.o. QD, 24 hr post first dose): 7.8 µM
concentration at 24 h ([1]; in vivo, 100 mg/kg, Zibotentan blood concentration, Zibo 100 mg/kg p.o. QD 7 days, 24 hr post last dose): 136 µM
concentration at 4 h ([1]; in vivo, 100 mg/kg, Zibotentan blood concentration, Zibo 100 mg/kg p.o. QD): 161 µM
concentration at 24 h ([1]; in vivo, 100 mg/kg, Zibotentan blood concentration, Zibo 100 mg/kg p.o. QD, 24 hr post first dose): 63.9 µM
Day 3 Hb ([2]; Zibo 30 mg/kg p.o. QD): 144.4 g/L
Day 7 Hb ([2]; Zibo 30 mg/kg p.o. QD): 148.6 g/L
Day 3 Hb ([2]; Zibo 100 mg/kg p.o. QD): 147.5 g/L
Day 7 Hb ([2]; Zibo 100 mg/kg p.o. QD): 144.8 g/L
Basal Hb ([2]; group Zibo 30 mg/kg): 160.2 g/L
Basal Hb ([2]; group Zibo 100 mg/kg): 158.5 g/L
Plasma Na, K, glucose, urea concentrations compared to vehicle [3]: unaltered
Plasma Creatinine ([3]; Zibo 30 mg/kg p.o. QD 7 days): 17.58 µM
Plasma Glucose ([3]; Zibo 30 mg/kg p.o. QD 7 days): 8.96 mmol/L
Plasma K ([3]; Zibo 30 mg/kg p.o. QD 7 days): 4.17 mmol/L
Plasma Na ([3]; Zibo 30 mg/kg p.o. QD 7 days): 139.1 mmol/L
Plasma Urea ([3]; Zibo 30 mg/kg p.o. QD 7 days): 4.47 mmol/L
Plasma creatinine compared to vehicle ([3]; Zibo 100 mg/kg monotreatment or in combination with Dapa 3 mg/kg, p<0.05): significantly increase
Plasma Creatinine ([3]; Zibo 100 mg/kg p.o. QD 7 days): 18.08 µM
Plasma Glucose ([3]; Zibo 100 mg/kg p.o. QD 7 days): 8.73 mmol/L
Plasma K ([3]; Zibo 100 mg/kg p.o. QD 7 days): 4.13 mmol/L
Plasma Na ([3]; Zibo 100 mg/kg p.o. QD 7 days): 138.4 mmol/L
Plasma Urea ([3]; Zibo 100 mg/kg p.o. QD 7 days): 4.25 mmol/L
24-hour urine volume and urea excretion compared to vehicle [4]: No difference
Urine Na, K and creatinine compared to vehicle [4]: No change
Urine glucose excretion [4]: no effect
Urine Creatinine ([4]; Zibo 30 mg/kg p.o. QD): 71.33 µmol
Urine K ([4]; Zibo 30 mg/kg p.o. QD): 1.27 mmol
Urine Na ([4]; Zibo 30 mg/kg p.o. QD): 10.67 mmol
Urine Urea ([4]; Zibo 30 mg/kg p.o. QD): 4.61 mmol
Urine volume ([4]; Zibo 30 mg/kg p.o. QD): 19.08 mL
Urine Creatinine ([4]; Zibo 100 mg/kg p.o. QD): 68.18 µmol
Urine K ([4]; Zibo 100 mg/kg p.o. QD): 1.16 mmol
Urine Na ([4]; Zibo 100 mg/kg p.o. QD): 10.03 mmol
Urine Urea ([4]; Zibo 100 mg/kg p.o. QD): 4.11 mmol
Urine volume ([4]; Zibo 100 mg/kg p.o. QD): 19.08 mL
Water and food intake compared to vehicle [5]: unchanged
